Measured values reported in PubChem BioAssay (NCI).
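Cells were grown in 96-well plates and exposed to each compound for 48 hours at five concentrations; endpoints were interpolated linearly between bracketing concentrations, or set to the highest concentration if not reached. GI50 = concentration required for 50% inhibition of growth. TGI: total growth inhibition.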

Legend:
Test in all cases: DTP human tumour cell line panel, 48 h
786-0 renal = system: 786-0 renal
A549 NSCLC = system: A549 NSCLC
UO-31 renal = system: UO-31 renal
SK-OV-3 ovarian = system: SK-OV-3 ovarian
SNB-19 CNS = system: SNB-19 CNS
HOP-92 NSCLC = system: HOP-92 NSCLC
OVCAR-3 ovarian = system: OVCAR-3 ovarian
UACC-62 melanoma = system: UACC-62 melanoma
SF-539 CNS = system: SF-539 CNS
SN12C renal = system: SN12C renal

SMILES	GI50 (786-0 renal) [µM]	TGI (786-0 renal) [µM]	GI50 (A549 NSCLC) [µM]	TGI (A549 NSCLC) [µM]	GI50 (UO-31 renal) [µM]	TGI (UO-31 renal) [µM]	GI50 (SK-OV-3 ovarian) [µM]	TGI (SK-OV-3 ovarian) [µM]	GI50 (SNB-19 CNS) [µM]	TGI (SNB-19 CNS) [µM]	GI50 (HOP-92 NSCLC) [µM]	TGI (HOP-92 NSCLC) [µM]	GI50 (OVCAR-3 ovarian) [µM]	TGI (OVCAR-3 ovarian) [µM]	GI50 (UACC-62 melanoma) [µM]	TGI (UACC-62 melanoma) [µM]	TGI (SF-539 CNS) [µM]	TGI (SN12C renal) [µM]	GI50 (SF-539 CNS) [µM]	GI50 (SN12C renal) [µM]
N#CC1C(N)=NNC12Nc1ccccc1N2 (stereo unspecified)	45	> 100	9.43	> 100	11.5	84.9	30	> 100	17.8	91	2.2	34.5	3.16	19.4	3.28	33.8	–	–	–	–
CC(CCCOC(c1ccccc1)(c1ccccc1)c1ccccc1)OC(=O)Nc1cc([N+](=O)[O-])cc([N+](=O)[O-])c1 (stereo unspecified)	–	94.9	–	> 100	–	> 100	–	57.9	–	> 100	–	–	–	> 100	–	50.2	> 100	> 100	–	–
N#Cc1ccccc1NC(=O)c1ccccc1	–	> 100	–	> 100	–	–	–	–	–	> 100	–	> 100	–	> 100	–	> 100	> 100	> 100	–	–
CC(=O)Oc1ccccc1C(=O)C1c2cccc(O)c2C(=O)c2c(O)cccc21	–	3.98	–	2.86	–	1.68	–	1.68	–	24.3	–	3.76	–	–	–	2.23	1.94	12.1	–	–
COC(=O)[C@]1(C)CCC[C@@]2(C)C1CCC1=C[C@@]3(C(C)C)CC[C@]12OO3 (stereo partly specified)	–	40.9	–	> 100	–	40.2	–	> 100	–	> 100	–	–	–	> 100	–	72.3	47.5	> 100	–	–
COc1ccc(-c2ccc(/C=N/n3c(COc4ccc(Cl)cc4)n[nH]c3=S)o2)c([N+](=O)[O-])c1	18.4	44.7	11.6	44.1	33.5	> 100	19.9	53.3	20.1	53.6	15.1	43.8	–	–	17.8	51.7	42.2	53.4	18.6	19.9
COc1ccc2cc3n(c2c1)CCc1cc(OC)c(OC)cc1-3	–	> 100	–	> 100	–	> 100	–	> 100	–	> 100	–	> 100	–	–	–	> 100	> 100	> 100	–	–
FC(F)(F)c1ccc2nc(Nc3ccc(Cl)c(Cl)c3)c(-c3ccccc3)nc2c1	–	> 100	–	> 100	–	> 100	–	–	–	> 100	–	> 100	–	> 100	–	–	> 100	> 100	–	–
COC(=O)C(=O)C(C(=O)C=C(C)C)C(=O)C(=O)Nc1cccc(C(C)=O)c1 (stereo unspecified)	–	> 100	–	> 100	–	> 100	–	> 100	–	> 100	–	–	–	> 100	–	> 100	> 100	> 100	–	–
COC(=O)C(Cc1nc2ccc(Cl)cc2[nH]c1=O)C(=O)C(=O)Nc1ccccc1[N+](=O)[O-] (stereo unspecified)	–	> 100	–	> 100	–	> 100	–	> 100	–	> 100	–	–	–	> 100	–	> 100	> 100	> 100	–	–
O=C(Nc1ccc2c(c1)oc(=O)c1ccccc12)C(Cl)Cl	–	> 100	–	> 100	–	> 100	–	–	–	> 100	–	> 100	–	73.8	–	> 100	> 100	> 100	–	–
C[C@H](CSC(=O)c1ccccc1)C(=O)N1c2ccccc2C[C@H]1C(=O)O	–	> 10	–	> 100	–	> 100	–	> 100	–	> 100	–	–	–	> 100	–	> 100	> 100	> 100	–	–
Cc1cccc(C)c1NC(=O)CCCC(=O)C1CCC/C1=N\NC(=O)C(=O)NN (stereo unspecified)	–	> 100	–	> 100	–	> 100	–	> 100	–	> 100	–	–	–	> 100	–	–	> 100	> 100	–	–
CN(C)CCNC(=O)c1ccc(Cl)c2c(Nc3ccc(S(N)(=O)=O)cc3)c3ccccc3nc12	–	9.2	–	11.9	–	11	–	10.1	–	14.5	–	8.54	–	–	–	3.05	4.79	10.1	–	–
CC(C)=CC(=O)CC(=O)C(=O)Nc1ccc(Cl)c(Cl)c1	–	> 100	–	> 100	–	> 100	–	> 100	–	> 100	–	–	–	> 100	–	> 100	> 100	> 100	–	–
FC(F)(F)C12C34C=CC5(CCC6(C=CC1(CC3)O6)C52C(F)(F)F)O4 (stereo unspecified)	–	> 100	–	> 100	–	–	–	> 100	–	> 100	–	> 100	–	> 100	–	–	> 100	> 100	–	–
Cc1cccc(C(C)(C)C)c1NC(=O)C(=O)C(c1cnc2ccccc2n1)[N+](=O)[O-] (stereo unspecified)	–	> 100	–	> 100	–	> 100	–	> 100	–	> 100	–	> 100	–	–	–	> 100	> 100	> 100	–	–
NCc1ccc(-n2c(-c3nonc3N)nc3cnccc32)cc1	7.51	> 25	6.86	> 25	0.442	> 25	> 25	> 25	> 25	> 25	–	–	7.13	> 25	> 25	> 25	> 23.6	> 25	2.57	7.61
C=C(C)[C@@H]1CC[C@@]2(C)[C@H]1[C@H]1CCC3[C@@]4(C)CC[C@H](O)C(C)(C)[C@@H]4CC[C@@]3(C)[C@]1(C)C[C@@H]2O (stereo partly specified)	–	> 100	–	> 100	–	–	–	–	–	> 100	–	> 100	–	> 100	–	–	> 100	> 100	–	–
CC(=O)C1=C([O-])C(C)OC1=O.CC(=O)C1=C([O-])C(C)OC1=O.[NH-]C1CCCC[C@H]1[NH-].[Pt+4] (stereo unspecified)	9.67	> 100	88.1	> 100	> 100	> 100	> 100	> 100	> 100	> 100	–	–	> 100	> 100	42.3	> 100	–	> 100	–	41.6
COc1cnc2c(c1)C(=O)c1c-2n(CCCN2CCCC2)c(=O)c2cc(Cl)ccc12	1.47	9.66	0.605	10.2	0.599	9.02	1.47	10.5	1.03	11.7	2.2	12.1	–	–	–	–	–	–	–	–
CCOC(=O)/C(C#N)=C1\N[C@H](C(=O)OCC)CO1	–	> 100	–	> 100	–	> 100	–	–	–	> 100	–	–	–	> 100	–	> 100	> 100	> 100	–	–
CCOc1ccc(NC(=O)CC2SC(N)=NC2=O)cc1 (stereo unspecified)	–	> 100	–	> 100	–	> 100	–	–	–	> 100	–	> 100	–	> 100	–	> 100	–	> 100	–	–
CS(=O)(=O)Nc1cc(-c2ccc3ncnc(Nc4ccc5c(cnn5Cc5ccc(F)cc5)c4)c3c2)cnc1Cl	2.22	19.9	3.38	63.8	–	–	1.54	5.85	1.81	12.2	–	–	1.1	3.3	0.607	2.98	5.29	19.3	1.5	1.66
CCC1CN2CCc3cc(OC)c(OC)cc3C2CC1CC1c2cc(OC)c(OC)cc2CCN1C(=O)CNC(=O)OC(C)(C)C (stereo unspecified)	–	21.2	–	62.6	–	68.3	–	64.7	–	53.5	–	–	–	61.7	–	56.4	–	90	–	–
COc1ccc2c(c1)nc(N)c1c3cccnc3cn21	0.115	16.7	0.0565	16.6	0.0776	17.9	0.0508	> 79.3	0.212	> 100	–	–	–	–	0.0541	22.1	1.09	> 100	0.0432	0.382
C/C1=C\CC[C@@](C)(O)[C@@H]2CC3[C@@H](OC(=O)C34CC4)[C@@H](O2)[C@H](C)CCC1 (stereo partly specified)	16.2	29.8	24.5	77.6	15.3	29.9	55	> 100	58.6	> 100	38.9	> 100	20.1	39.6	21.3	56.4	–	43.5	–	20.3
CSc1nc(-c2ccccc2)c2c(n1)-c1ccccc1CC2	–	> 100	–	> 100	–	> 100	–	> 100	–	> 100	–	> 100	–	> 100	–	> 100	–	> 100	–	–
